Drawing on patent US9255090B2, “Heterocyclyl derivatives and their use as prostaglandin D2 receptor modulators” (Actelion Pharmaceuticals Ltd., priority 2012, dated 2016), this text covers IC50 for 31 compounds.

The pIC50 is −log10 of the IC50, conventionally taken in molar units.

pIC50: −log10 of the molar value.

Assay [1] concerns eosinophils. As to the kind of experiment: Eosinophil shape change assay with human plasma. It counts as cell-based. The conditions noted are these: human plasma (50%), PGD2 100 nM activation, antagonistic activity. The source says: Eosinophil Shape Change Assay with Human Plasma
After obtaining informed consent, blood samples were drawn by venipuncture according to the protocol approved by the ethics committee of Basel, Switzerland. Polymorphonuclear leukocytes (containing eosinophils, basophils and neutrophils) were isolated using the Polymorphprep™ method (Axis-Shield). […] The polymorphonuclear cell fraction was harvested and depleted for erythrocytes by hypotonic saline lysis.
The polymorphonuclear cells were resuspended in assay buffer (1×PBS with Ca^2+/Mg^2+ supplemented with 0.1% BSA, 10 mM HEPES, and 10 mM Glucose, pH 7.4) at 5×10^6 cells/ml and stained with anti-CD49d-APC ((APC=Allophycocyanin) for 1 hour at RT. Test compounds, at various concentrations, were preincubated 10 min in human plasma (anticoagulated with a thrombin inhibitor). Then, human plasma was added to the polymorphonuclear cells to 50% of final assay volume with polymorphonuclear cells at 4×10^6 cells/ml. After incubation for 10 minutes at 37° C., the polymorphonuclear cells were activated for 5 min at 37° C. by addition of PGD2 at 100 nM final concentration. Activation was stopped by addition of 0.5 ml paraformaldehyde (1%).
Immediately after fixation with paraformaldehyde, the samples were analyzed by FACSCanto flow cytometer (BD Biosciences) and target cells were identified by their forward-scatter (FSC) and side-scatter (SSC) characteristics. Eosinophils were identified by the anti-CD49d-APC signal and their characteristic side-scatter (SSC) profile. Shape change responses, indicative of eosinophil activation, were quantified as the percent of cells with an increased forward-scatter.

Assay [2] has as its target hCRTH2 receptor (Homo sapiens (Human), UniProt Q9Y5Y4). As to the kind of experiment: hCRTH2 receptor membranes radioligand (3H-PGD2) displacement assay. It counts as binding. The conditions noted are these: 3H-PGD2 radioligand displacement, HEK293-hCRTH2 membranes. The gist of the method: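 Compound was first mixed with buffer, then 3H-PGD2 was added at 2.5 nM, and the reaction was started with hCRTH2 membranes from HEK293 cells at 20 μg/well. After 90 min at room temperature, mixtures were filtered and washed with ice-cold buffer, and retained radioactivity was counted.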
Background: Loss of bound radioactivity is the signal in a displacement assay; it reports binding, not function.

hCRTH2 receptor, sequence (Q9Y5Y4 whole entry): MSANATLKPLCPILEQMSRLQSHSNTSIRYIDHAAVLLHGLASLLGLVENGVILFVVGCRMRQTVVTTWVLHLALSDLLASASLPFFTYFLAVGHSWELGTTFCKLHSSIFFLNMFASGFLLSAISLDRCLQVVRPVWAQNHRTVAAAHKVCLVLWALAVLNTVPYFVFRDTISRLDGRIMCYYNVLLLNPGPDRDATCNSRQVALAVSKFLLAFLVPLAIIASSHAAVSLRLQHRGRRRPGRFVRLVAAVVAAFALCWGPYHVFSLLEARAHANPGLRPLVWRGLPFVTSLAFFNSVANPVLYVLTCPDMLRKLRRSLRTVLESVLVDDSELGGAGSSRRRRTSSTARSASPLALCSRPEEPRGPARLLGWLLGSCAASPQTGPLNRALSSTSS

As to `COc1ccc(CC(=O)O)cc1-c1ccc(F)c2c1CN(C(=O)[C@@H]1C[C@H]1c1ccccc1)C2` (racemic) [Example 37, (±)-{3-[7-Fluoro-2-(trans-2-phenyl-cyclopropanecarbonyl)-2,3-dihydro-1H-isoindol-4-yl]-4-methoxy-phenyl}-acetic acid], the pIC50 in assay [1] (Homo sapiens, Eosinophil) is 6.54. The same measure, in the same setting: as for `COc1ccc(CC(=O)O)cc1-c1ccc(F)c2c1CN(C(=O)CC1CC(C)(C)Oc3ccccc31)CC2` (racemic) [Example 240], the figure is 7.51; as for `COc1ccc(CC(=O)O)cc1-c1ccc(F)c2c1CN(C(=O)[C@@H]1C[C@H]1c1cccc(F)c1)CC2` [Example 65, (3-{5-Fluoro-2-[(1R,2R)-2-(3-fluoro-phenyl)-cyclopropanecarbonyl]-1,2,3,4-tetrahydro-isoquinolin-8-yl}-4-methoxy-phenyl)-acetic acid], 8.00.

In the case of `COc1cc(CC(=O)O)ccc1-c1ccc(F)c2c1CN(C(=O)CC1CCOc3ccccc31)CC2` (stereo not shown) [Example 201, {4-[2-(2-Chroman-4-yl-acetyl)-5-fluoro-1,2,3,4-tetrahydro-isoquinolin-8-yl]-3-methoxy-phenyl}-acetic acid], the pIC50 in assay [1] is 7.51. In assay [2], `CC(C)(CC(=O)N1CCc2c(F)ccc(-c3ccc(CC(=O)O)cc3OCC(F)(F)F)c2C1)c1ccccc1` [Example 286, [4-[5-Fluoro-2-(3-methyl-3-phenyl-butyryl)-1,2,3,4-tetrahydro-isoquinolin-8-yl]-3-(2,2,2-trifluoro-ethoxy)-phenyl]-acetic acid] had a pIC50 of 8.05. Same read-out and setting: to `COc1ccc(CC(=O)O)cc1-c1cccc2c1CN(C(=O)OCc1ccccc1)CC2` [Example 170, 8-(5-Carboxymethyl-2-methoxy-phenyl)-3,4-dihydro-1H-isoquinoline-2-carboxylic acid benzyl ester] belongs 6.96; to `COc1ccc(CC(=O)O)cc1-c1ccc(F)c2c1CN(C(=O)OCc1cncnc1)CC2` [Example 152, 8-(5-Carboxymethyl-2-methoxy-phenyl)-5-fluoro-3,4-dihydro-1H-isoquinoline-2-carboxylic acid pyrimidin-5-ylmethyl ester], 7.47.

In assay [2], `COc1ccccc1CNC(=O)N1CCc2c(F)ccc(-c3cc(CC(=O)O)ccc3OC)c2C1` [Example 135, {3-[5-Fluoro-2-(2-methoxy-benzylcarbamoyl)-1,2,3,4-tetrahydro-isoquinolin-8-yl]-4-methoxy-phenyl}-acetic acid] had a pIC50 of 7.71. Same read-out and setting: to `O=C(O)Cc1cc(F)cc(-c2ccc(F)c3c2CN(C(=O)OCc2ccccc2)CC3)c1` [Example 14, 8-(3-Carboxymethyl-5-fluoro-phenyl)-5-fluoro-3,4-dihydro-1H-isoquinoline-2-carboxylic acid benzyl ester] belongs 7.83; to `CCCNC(=O)N1CCc2c(F)ccc(-c3ccc(CC(=O)O)cc3OCC)c2C1` [Example 447, [3-Ethoxy-4-(5-fluoro-2-propylcarbamoyl-1,2,3,4-tetrahydro-isoquinolin-8-yl)-phenyl]-acetic acid], 7.11; to `COc1cc(CC(=O)O)ccc1-c1ccc(F)c2c1CN(C(=O)CCc1c(C)[nH]c3ccccc13)CC2` [Example 186, (4-{5-Fluoro-2-[3-(2-methyl-1H-indol-3-yl)-propionyl]-1,2,3,4-tetrahydro-isoquinolin-8-yl}-3-methoxy-phenyl)-acetic acid], 8.58. In assay [2], `COc1ccc(CC(=O)O)cc1-c1ccc(F)c2c1CN(C(=O)CC1COc3ccccc31)CC2` (racemic) [Example 270] showed a negative-log IC50 (pIC50) of 7.60. The same measure, in the same setting: as for `COc1ccc(-c2ccc(F)c3c2CN(C(=O)OCc2ccccc2)CC3)cc1CC(=O)O` [Example 13, 8-(3-Carboxymethyl-4-methoxy-phenyl)-5-fluoro-3,4-dihydro-1H-isoquinoline-2-carboxylic acid benzyl ester], the figure is 7.14; as for `COc1ccc(CC(=O)O)cc1-c1ccc(F)c2c1CN(C(=O)CC(c1ccccc1)C(C)C)CC2` (racemic) [Example 264], 6.60. Compound `COc1ccc(CC(=O)O)cc1-c1ccc(F)c2c1CN(C(=O)/C=C/c1cccnc1)CC2` [Example 89, {3-[5-Fluoro-2-((E)-3-pyridin-3-yl-acryloyl)-1,2,3,4-tetrahydro-isoquinolin-8-yl]-4-methoxy-phenyl}-acetic acid] had a pIC50 in assay [2] of 7.24.

For the compound `CCOc1cc(CC(=O)O)ccc1-c1ccc(F)c2c1CN(C(=O)Cc1ccccn1)CC2` [Example 342, {3-Ethoxy-4-[5-fluoro-2-(2-pyridin-2-yl-acetyl)-1,2,3,4-tetrahydro-isoquinolin-8-yl]-phenyl}-acetic acid], in assay [2], the pIC50 was 6.82. Regarding `COc1ccc(CC(=O)O)cc1-c1ccc(F)c2c1CN(C(=O)/C=C/c1sc(C)nc1C)CC2` [Example 87, (3-{2-[(E)-3-(2,4-Dimethyl-thiazol-5-yl)-acryloyl]-5-fluoro-1,2,3,4-tetrahydro-isoquinolin-8-yl}-4-methoxy-phenyl)-acetic acid], the pIC50 in assay [2] was 7.03. Same read-out and setting: as for `CCOc1ccc(CC(=O)O)cc1-c1ccc(F)c2c1CN(C(=O)CC(C)c1nccs1)CC2` (racemic) [Example 283], the figure is 8.14; as for `CCOc1cc(CC(=O)O)ccc1-c1ccc(F)c2c1CN(C(=O)OCc1cccc(C)n1)CC2` [Example 390, 8-(4-Carboxymethyl-2-ethoxy-phenyl)-5-fluoro-3,4-dihydro-1H-isoquinoline-2-carboxylic acid 6-methyl-pyridin-2-ylmethyl ester], 9.10. Consider `CCOc1cc(CC(=O)O)ccc1-c1ccc(F)c2c1CN(C(=O)OCc1ccccn1)CC2` [Example 395, 8-(4-Carboxymethyl-2-ethoxy-phenyl)-5-fluoro-3,4-dihydro-1H-isoquinoline-2-carboxylic acid pyridin-2-ylmethyl ester], for which the pIC50 in assay [2] is 8.43. Still for that read-out and setting: to `CCOc1cc(CC(=O)O)ccc1-c1ccc(F)c2c1CN(C(=O)CC(CC)c1ccccn1)CC2` (racemic) [Example 313] belongs 8.11. The same measure, in the same setting: as for `CC(C)Oc1cc(CC(=O)O)ccc1-c1ccc(F)c2c1CN(C(=O)[C@@H]1C[C@H]1c1ccccc1)CC2` [Example 357, {4-[5-Fluoro-2-((1R,2R)-2-phenyl-cyclopropanecarbonyl)-1,2,3,4-tetrahydro-isoquinolin-8-yl]-3-isopropoxy-phenyl}-acetic acid], the figure is 8.80; as for `O=C(O)Cc1ccc(Cl)c(-c2ccc(F)c3c2CN(C(=O)OCc2ccccc2)CC3)c1` [Example 9, 8-(5-Carboxymethyl-2-chloro-phenyl)-5-fluoro-3,4-dihydro-1H-isoquinoline-2-carboxylic acid benzyl ester], 7.89; as for `CCOc1cc(CC(=O)O)ccc1-c1ccc(F)c2c1CN(C(=O)NCCc1ccccc1)CC2` [Example 443, [3-Ethoxy-4-(5-fluoro-2-phenethylcarbamoyl-1,2,3,4-tetrahydro-isoquinolin-8-yl)-phenyl]-acetic acid], 7.74. Still for that read-out and setting: to `CCOc1ccc(CC(=O)O)cc1-c1ccc(F)c2c1CN(C(=O)CCc1ccccc1F)CC2` [Example 312, (4-Ethoxy-3-{5-fluoro-2-[3-(2-fluoro-phenyl)-propionyl]-1,2,3,4-tetrahydro-isoquinolin-8-yl}-phenyl)-acetic acid] belongs 8.32; to `COc1ccc(CC(=O)O)cc1-c1ccc(F)c2c1CN(C(=O)CC1c3ccccc3CCN1C)CC2` (racemic) [Example 259], 6.23; to `CC(CC(=O)N1CCc2c(F)ccc(-c3cc(CC(=O)O)ccc3OCC(F)(F)F)c2C1)c1ccccn1` (racemic) [Example 302], 8.09.

In assay [2], `CCOc1cc(CC(=O)O)ccc1-c1ccc(F)c2c1CN(C(=O)NCc1ccccc1)CC2` [Example 446, [4-(2-Benzylcarbamoyl-5-fluoro-1,2,3,4-tetrahydro-isoquinolin-8-yl)-3-ethoxy-phenyl]-acetic acid] had a pIC50 of 8.33. Same read-out and setting: as for `COc1ccc(CC(=O)O)cc1-c1ccc(F)c2c1CN(C(=O)C1CCc3ccccc3O1)CC2` (racemic) [Example 115, (±)-{3-[2-(Chroman-2-carbonyl)-5-fluoro-1,2,3,4-tetrahydro-isoquinolin-8-yl]-4-methoxy-phenyl}-acetic acid], the figure is 6.76. Still for that read-out and setting: to `COc1ccc(CC(=O)O)cc1-c1ccc(F)c2c1CN(C(=O)[C@@H]1C[C@H]1c1ccc(Cl)cc1Cl)CC2` (racemic) [Example 98, (±)-(3-{2-[trans-2-(2,4-Dichloro-phenyl)-cyclopropanecarbonyl]-5-fluoro-1,2,3,4-tetrahydro-isoquinolin-8-yl}-4-methoxy-phenyl)-acetic acid] belongs 8.00. The same measure, in the same setting: to `O=C(O)COc1ccc(F)cc1-c1cccc2c1CN(C(=O)OCc1ccccc1)CC2` [Example 173, 8-(2-Carboxymethoxy-5-fluoro-phenyl)-3,4-dihydro-1H-isoquinoline-2-carboxylic acid benzyl ester] belongs 7.04.
